Common to all, as to assay type: functional
In one assay the test system is Candida albicans. The experiment in a line: Antifungal activity against Candida albicans ATCC 10231 by broth microdilution method. On the technique in general: In broth dilution the organism is exposed to a series of concentrations in liquid medium.
The test system of the next assay is Candida tropicalis. The experiment in a line: Antifungal activity against Candida tropicalis ATCC 13803 by broth microdilution method.
The next assay deals with Clavispora lusitaniae. The experiment in a line: Antifungal activity against Candida lusitaniae ATCC 42720 by broth microdilution method.
In a further assay the test system is Pichia kudriavzevii. The experiment in a line: Antifungal activity against Candida krusei ATCC 6258 by broth microdilution method.
A further assay concerns Aspergillus fumigatus. The experiment in a line: Antifungal activity against Aspergillus fumigatus ATCC 16424 by broth microdilution method.
The subject of a further assay is Aspergillus terreus. The experiment in a line: Antifungal activity against Aspergillus terreus ATCC 46941 by broth microdilution method.
The test system of a further assay is Cryptococcus neoformans. The experiment in a line: Antifungal activity against Cryptococcus neoformans ATCC 36556 by broth microdilution method.

In brackets after ≈: the same amount, converted by molar mass.

For the molecule `COc1ccc2c(Cc3ccc(C(C)C)cc3)c3[n+](cc2c1OC)CCc1cc2c(cc1-3)OCO2.[Cl-]`, the MIC against Candida albicans turned out to be 4 µg/mL; in the assay with Candida tropicalis, 1 µg/mL; in the assay on Clavispora lusitaniae it was 8 µg/mL; against Pichia kudriavzevii, 4 µg/mL; in the assay on Aspergillus fumigatus, 64 µg/mL; against Aspergillus terreus, 32 µg/mL. Further, the MIC against Cryptococcus neoformans came to 4 µg/mL.
Consider `COc1ccc2c(Cc3ccc(C(C)(C)C)cc3)c3[n+](cc2c1OC)CCc1cc2c(cc1-3)OCO2.[Cl-]`, for which the MIC against Candida albicans came to 4 µg/mL; with Candida tropicalis, 2 µg/mL; with Clavispora lusitaniae, 8 µg/mL; in the assay on Pichia kudriavzevii, 8 µg/mL; with Aspergillus fumigatus, 64 µg/mL; in the assay with Aspergillus terreus, 64 µg/mL. Moreover, the MIC in the assay with Cryptococcus neoformans is 4 µg/mL.
With `COc1ccc2c(Cc3cc(F)cc(F)c3)c3[n+](cc2c1OC)CCc1cc2c(cc1-3)OCO2.[Cl-]`, the MIC with Candida albicans was 128 µg/mL; against Candida tropicalis, 32 µg/mL; against Clavispora lusitaniae, 64 µg/mL; against Pichia kudriavzevii, 64 µg/mL; with Aspergillus fumigatus it was more than 128 µg/mL; against Aspergillus terreus it was more than 128 µg/mL. This molecule registered an MIC with Cryptococcus neoformans of 32 µg/mL.
For the molecule `COc1ccc2c(Cc3ccc(C(F)(F)F)cc3)c3[n+](cc2c1O)CCc1cc2c(cc1-3)OCO2.[Cl-]`, the MIC in the assay on Candida albicans is 128 µg/mL; with Candida tropicalis, 64 µg/mL; in the assay with Clavispora lusitaniae, 64 µg/mL; against Pichia kudriavzevii, 64 µg/mL; against Aspergillus fumigatus, more than 128 µg/mL; with Aspergillus terreus it was more than 128 µg/mL. The molecule further registered an MIC in the assay with Cryptococcus neoformans of 16 µg/mL.
`COc1ccc2c(Cc3ccc(C(C)(C)C)cc3)c3[n+](cc2c1O)CCc1cc2c(cc1-3)OCO2.[Cl-]`: the MIC against Candida albicans was 16 µg/mL; with Candida tropicalis it was 16 µg/mL; in the assay with Clavispora lusitaniae, 8 µg/mL; in the assay on Pichia kudriavzevii it was 32 µg/mL; in the assay with Aspergillus fumigatus, more than 128 µg/mL; against Aspergillus terreus, more than 128 µg/mL. The molecule also had an MIC against Cryptococcus neoformans of 8 µg/mL.
In the case of `COc1ccc2c(Cc3cc(F)c(F)c(F)c3)c3[n+](cc2c1O)CCc1cc2c(cc1-3)OCO2.[Cl-]`, the MIC in the assay with Candida albicans is more than 128 µg/mL; in the assay on Candida tropicalis, 128 µg/mL; in the assay on Clavispora lusitaniae, 128 µg/mL; in the assay with Pichia kudriavzevii, 128 µg/mL; against Aspergillus fumigatus it was more than 128 µg/mL; against Aspergillus terreus, more than 128 µg/mL. Moreover, it took 64 µg/mL to inhibit growth in the assay on Cryptococcus neoformans (MIC).
For `COc1cc(Cc2c3[n+](cc4c(O)c(OC)ccc24)CCc2cc4c(cc2-3)OCO4)cc(OC)c1OC.[Cl-]`, the minimum inhibitory concentration (MIC) in the assay on Candida albicans is more than 128 µg/mL; in the assay with Candida tropicalis, 128 µg/mL; with Clavispora lusitaniae it was 128 µg/mL; against Pichia kudriavzevii it was more than 128 µg/mL; against Aspergillus fumigatus, more than 128 µg/mL; in the assay with Aspergillus terreus, more than 128 µg/mL. Besides, the lowest concentration to inhibit growth in the assay on Cryptococcus neoformans (MIC) was 32 µg/mL.
Consider `COc1ccc2c(Cc3ccc(C(C)C)cc3)c3[n+](cc2c1O)CCc1cc2c(cc1-3)OCO2.[Cl-]`, for which the MIC against Candida albicans is 16 µg/mL; against Candida tropicalis, 16 µg/mL; against Clavispora lusitaniae it was 8 µg/mL; in the assay on Pichia kudriavzevii, 16 µg/mL; against Aspergillus fumigatus, more than 128 µg/mL; against Aspergillus terreus, more than 128 µg/mL. In addition, the MIC in the assay on Cryptococcus neoformans was 4 µg/mL.
As for `COc1cc(Cc2c3[n+](cc4c(OC)c(OC)ccc24)CCc2cc4c(cc2-3)OCO4)cc(OC)c1OC.[Cl-]`, the MIC against Candida albicans was 128 µg/mL; in the assay on Candida tropicalis, 64 µg/mL; with Clavispora lusitaniae it was 128 µg/mL; against Pichia kudriavzevii it was 64 µg/mL; against Aspergillus fumigatus, more than 128 µg/mL; in the assay with Aspergillus terreus, more than 128 µg/mL. Inhibition of growth against Cryptococcus neoformans (MIC) required 32 µg/mL.
Consider `COc1ccc2c(Cc3cc(F)c(F)c(F)c3)c3[n+](cc2c1OC)CCc1cc2c(cc1-3)OCO2.[Cl-]`, for which the MIC in the assay with Candida albicans is 128 µg/mL; in the assay on Candida tropicalis, 64 µg/mL; in the assay with Clavispora lusitaniae, 128 µg/mL; in the assay on Pichia kudriavzevii, 64 µg/mL; with Aspergillus fumigatus, more than 128 µg/mL; with Aspergillus terreus, more than 128 µg/mL. 64 µg/mL was the least that counted as inhibitory against Cryptococcus neoformans (MIC).
In the case of `COc1ccc2c(Cc3cc(F)cc(F)c3)c3[n+](cc2c1O)CCc1cc2c(cc1-3)OCO2.[Cl-]`, the MIC in the assay with Candida albicans was more than 128 µg/mL; in the assay with Candida tropicalis, 128 µg/mL; with Clavispora lusitaniae it was 128 µg/mL; in the assay with Pichia kudriavzevii, 128 µg/mL; against Aspergillus fumigatus, more than 128 µg/mL; in the assay on Aspergillus terreus it was more than 128 µg/mL. Further, in the assay with Cryptococcus neoformans, the MIC amounted to 32 µg/mL.
Consider `COc1ccc2c(Cc3ccc(C(F)(F)F)cc3)c3[n+](cc2c1OC)CCc1cc2c(cc1-3)OCO2.[Cl-]`, for which the MIC against Candida albicans is 32 µg/mL; in the assay on Candida tropicalis it was 16 µg/mL; with Clavispora lusitaniae, 32 µg/mL; in the assay with Pichia kudriavzevii it was 32 µg/mL; in the assay on Aspergillus fumigatus, more than 128 µg/mL; against Aspergillus terreus it was more than 128 µg/mL. Further, the MIC in the assay with Cryptococcus neoformans is 16 µg/mL.
In the case of `COc1ccc2c(Cc3ccc(OC(F)(F)F)cc3)c3[n+](cc2c1OC)CCc1cc2c(cc1-3)OCO2.[Cl-]`, the MIC was 16 µg/mL with Candida albicans; 8 µg/mL against Candida tropicalis; 32 µg/mL with Clavispora lusitaniae; 16 µg/mL against Pichia kudriavzevii; more than 128 µg/mL in the assay on Aspergillus fumigatus; more than 128 µg/mL against Aspergillus terreus. This molecule registered an MIC with Cryptococcus neoformans of 16 µg/mL.
For the molecule `COc1ccc2c(Cc3ccc(OC(F)(F)F)cc3)c3[n+](cc2c1O)CCc1cc2c(cc1-3)OCO2.[Cl-]`, the MIC in the assay with Candida albicans is 64 µg/mL; against Candida tropicalis, 32 µg/mL; against Clavispora lusitaniae, 32 µg/mL; against Pichia kudriavzevii, 32 µg/mL; with Aspergillus fumigatus, more than 128 µg/mL; with Aspergillus terreus it was more than 128 µg/mL. Moreover, in the assay with Cryptococcus neoformans, the MIC came out at 16 µg/mL.
With `C[C@@H]1[C@H](O)[C@@H](C)/C=C/C=C/C=C/C=C/C=C/C=C/C=C/[C@H](O[C@@H]2O[C@H](C)[C@@H](O)[C@H](N)[C@@H]2O)C[C@@H]2O[C@](O)(C[C@@H](O)C[C@@H](O)[C@H](O)CC[C@@H](O)C[C@@H](O)CC(=O)O[C@H]1C)C[C@H](O)[C@H]2C(=O)O` [AMPHOTERICIN B], the MIC was determined as 0.5 µg/mL (≈ 0.541 µM) in the assay on Candida albicans; 0.5 µg/mL (≈ 0.541 µM) against Candida tropicalis; 1 µg/mL (≈ 1.08 µM) in the assay with Clavispora lusitaniae; 0.5 µg/mL (≈ 0.541 µM) in the assay with Pichia kudriavzevii; 1 µg/mL (≈ 1.08 µM) against Aspergillus fumigatus; 16 µg/mL (≈ 17.3 µM) in the assay with Aspergillus terreus. The molecule further registered an MIC with Cryptococcus neoformans of 0.25 µg/mL (≈ 0.271 µM).
For `COc1ccc2cc3[n+](cc2c1OC)CCc1cc2c(cc1-3)OCO2.[Cl-]` [BERBERINE CHLORIDE], the MIC against Candida albicans is 128 µg/mL; with Candida tropicalis it was 16 µg/mL; in the assay on Clavispora lusitaniae it was more than 128 µg/mL; in the assay with Pichia kudriavzevii it was 32 µg/mL; against Aspergillus fumigatus, more than 128 µg/mL; against Aspergillus terreus, more than 128 µg/mL. The same molecule came in with an MIC in the assay with Cryptococcus neoformans of 64 µg/mL.
Turning to `COc1ccc2cc3[n+](cc2c1O)CCc1cc2c(cc1-3)OCO2` [BERBERRUBINE], the minimal inhibitory concentration (MIC) in the assay on Candida albicans was more than 128 µg/mL; with Candida tropicalis, 128 µg/mL; in the assay with Clavispora lusitaniae, more than 128 µg/mL; against Pichia kudriavzevii, more than 128 µg/mL; against Aspergillus fumigatus, more than 128 µg/mL; against Aspergillus terreus, more than 128 µg/mL. The molecule also came in with an MIC with Cryptococcus neoformans of more than 128 µg/mL.

What is called MIC is the lowest concentration that inhibits growth of the organism.

Source of the values: ChEMBL document CHEMBL1146003, “Synthesis of 13-(substituted benzyl) berberine and berberrubine derivatives as antifungal agents” (2006).
